US11389463B2, “Antiviral nucleoside reverse transcriptase inhibitor” (priority 2017, dated 2022)
Structures can show the parent of a compound that is named as a salt.

Tests used:
[1] = Cytotoxicity experiments of the anti-HBV test (Cell-titer Blue); assay type: cell-based; details: human, HepG2.2.15 cells, six days after treatment
Description: Cytotoxicity experiments: the arrangement of compounds on plate and compound-treatment process were the same as that of […] activity. Six days after the cells were treated by compounds, the cell activity was tested. Cell-titer Blue reagent was added to each well, the cells were incubated at 37° C. for 3 hours, and fluorescence values were read (560Ex/590 Em). The data were analyzed and the relative cell viability was calculated:
The percentage of cell viability was calculated using the following formula: % cell viability=(fluorescence reading of sample−fluorescence reading of culture control)/(fluorescence reading of DMSO control−fluorescence reading of culture control)×100.
Finally, the CC50 value of the compounds were calculated by the GraphPad Prism software.

HBV = test: Detection of anti-HBV activity in vitro (HepG2.2.15 cells, HBV DNA by quantitative PCR); assay type: cell-based; details: Hepatitis B virus, HBV DNA in supernatant on the eighth day, read-out: HBV activity and cytotoxicity data EC50
Description: Anti-cell viability assay: in vitro anti-hepatitis b virus activity of Example compounds was tested in HepG2.2.15 cells with TDF as a positive control compound. Cells were seeded into a 96-well plate on the first day; the compounds were added to treat the cells on the next day; and a new culture medium containing the compounds was replaced on the fifth day. On the eighth day, the supernatant was collected for DNA extraction. The content of HBV DNA was detected by quantitative PCR. Both test compound and TDF were subjected to a 3-fold serial dilution to get 8 concentration points in duplicate. The final concentration of DMSO in the culture medium was 0.5%. The formula for calculating the percentage of inhibition is as follows: Inhibition rate=(1−copy number of HBV in sample/copy number of HBV in DMSO control group)×100%

[2] = Liver microsomal metabolism experiment, human liver microsomes; assay type: in vitro ADME; details: pH 7.4, 1 μM compound, 0.5 mg/mL protein, NADPH
Description: (§1) Microsomal experiments: human liver microsomes: 0.5 mg/mL, Xenotech; rat liver microsomes: 0.5 mg/mL, Xenotech; coenzyme (NADPH/NADH): 1 mM, Sigma Life Science; magnesium chloride: 5 mM, 100 mM phosphate buffer (pH 7.4).
(§2) Preparation of stock solution: powder of Example compounds were precisely weighed and dissolved in DMSO to 5 mM.
(§3) Preparation of phosphate buffer (100 mm, pH 7.4): 0.5M pre-formulated potassium dihydrogen phosphate (150 ml) and 0.5M potassium hydrogen phosphate (700 ml) were mixed well. The pH of the mixture was then adjusted to 7.4 with 0.5M potassium hydrogen phosphate solution. The resulting solution was 5-fold diluted with ultrapure water before use, and magnesium chloride was added to the solution, affording a phosphate buffer (100 mm), containing potassium phosphate (100 mM), magnesium chloride (3.3 mM), pH 7.4. […]
(§4) Data analysis: The peak area of the corresponding compounds and internal standard was detected by LC-MS/MS system, and the peak area ratio of compounds to internal standard was calculated. The slope was measured by plotting the natural log of the percentage of the remaining amount of the compounds versus time, and t1/2 and CLint were calculated according to the following formula, where V/M is equal to 1/protein concentration.

[3] = Liver microsomal metabolism experiment, rat liver microsomes; assay type: in vitro ADME; details: SD, pH 7.4, 1 μM compound, 0.5 mg/mL protein, NADPH
Description: as §1, §2, §3, §4

[4] = Cytotoxicity assay in uninfected MT-4 cells (CellTiter-glo); assay type: cell-based; details: human, read-out: HIV activity and cytotoxicity data CC50
Description: The data was analyzed by GraphPad Prism software, and the curve was fitted and EC50 and CC50 values were calculated. EC50 refers to the effective concentration that inhibits 50% virus production, 50% virus infectivity, or 50% virus-induced cellular effects. CC50 refers to the inhibitory concentration that reduces the cell growth or viability of uninfected cells by 50%.
Viral infection and cell treatment: HIV-1 and MT-4 cells were co-incubated at 37° C., in an incubator with 5% CO2 for 1 h. The infected cells were then seeded in a cell culture plate at a certain density. The final concentration of DMSO in the cell culture medium was 0.5%. The cells were incubated at 37° C., in an incubator with 5% CO2 for 5 days. The cells tested in the cytotoxicity assay were uninfected MT-4 cells, and other test conditions were with the same as that of the antiviral activity assay.
The activity assay of the cell: the cell viability was tested by using cell viability assay reagent CellTiter-glo (Promega). The raw data was used for calculating the anti-HIV-1 activity and cytotoxicity of the Compounds.

HIV-1 = test: Detection of in vitro anti-HIV activity (HIV-1 infected MT-4 cells, CellTiter-glo); assay type: cell-based; details: Human immunodeficiency virus 1, MT4, 120 h, 5 days, read-out: HIV activity and cytotoxicity data EC50
Description: Compound treatment: the test compounds and the reference compounds were 2-fold diluted with DMSO and added to the cell culture plate. The test compounds and the reference compounds were tested at 8 concentrations in duplicate.

[5] = relative to TDF; cited from earlier work
immune cells = details: relative to TDF; cited from earlier work

SMILES	CC50 at 6 days [1]	EC50 (HBV)	microsomal CLint at 1 μM ([2]; read-out: Human liver microsome experiment CLint)	half-life at 1 μM ([2]; read-out: Human liver microsome experiment t1/2(min))	microsomal CLint at 1 μM ([3]; read-out: Rat liver microsome experiment CLint)	half-life at 1 μM ([3]; read-out: Rat liver microsome experiment t1/2(min))	CC50 at 5 days [4]	EC50 (HIV-1)	concentration of TFV in plasma metabolized by TAF, lower than that of TDF [5]	concentration of TFV in immune cells metabolized by TAF, times higher than that of TDF (immune cells)
CCCCCCCCCCCCCCCCS(=S)CCO[P@](=O)(CO[C@H](C)Cn1cnc2c(N)ncnc21)OCOC(=O)OC(C)C (single isomer, unassigned) [Compound T-3-2]	> 50000 nM	100 to 400 nM	71 µL/min/mg	19.5 min	54.4 µL/min/mg	25.5 min	100 to 500 nM	≤ 5 nM	–	–
CC(C)OC(=O)[C@H](C)N[P@](=O)(CO[C@H](C)Cn1cnc2c(N)ncnc21)Oc1ccccc1 [TAF, Tenofovir Alafenamide Fumarate]	–	–	–	–	–	–	–	–	90%	4 times
CCCCCCCCCCCCCCCCS(=S)CCO[P@@](=O)(CO[C@H](C)Cn1cnc2c(N)ncnc21)OCOC(=O)OC(C)C (single isomer, unassigned) [Compound T-3-1]	> 50000 nM	100 to 400 nM	–	–	–	–	100 to 500 nM	≤ 5 nM	–	–
